This data set is described as follows: Open-label SAD and MAD study, pharmacokinetics in healthy subjects and patients. The class given is in vivo, human. The settings on record: oral, 2.5 to 20 mg/day for 7 days. The procedure:
This study was an open-label, SAD, and MAD study to evaluate the safety, tolerability, and PK of Formulation 1 in healthy subjects and patients with a diagnosis of schizophrenia or schizoaffective disorder. Healthy subjects received subtherapeutic Formulation 1 doses of up to 105 mg and patients received therapeutic doses of up to 566 mg. […] Subjects and patients who met screening eligibility were assigned to 1 of 8 active cohorts, or the Vehicle Cohort, as detailed in Table 5.1 below.
All cohorts included assessments of safety, tolerability, and intensive PK sampling.
Except for the starting dose of 70 mg, the study followed an adaptive design in which the decision to dose-escalate with Formulation 1 was based on a review of the PK and safety data from the preceding lower dose of Formulation 1.
An extensive PK collection scheme was applied following the last oral dose to fully characterize the PK at steady-state.
In multiple-dose cohorts, the 3 doses of Formulation 1 were administered on day 1, day 29 (week 4) and day 57 (week 8), respectively.

In the case of `Cc1cc2c(s1)Nc1ccccc1N=C2N1CCN(C)CC1` [olanzapine, 2-methyl-4-(4-methyl-1-piperazinyl)-10H-thieno[2,3-b] [1,5]benzodiazepine], the “increase of systemic exposure (Cmax, AUCτ,ss) with dose” value is recorded as “dose-proportional”.

(Values after US12220418B2 (MEDINCELL S.A., priority 2023, dated 2025).)
